# Measured values: patent US10562914B2, “Imidazoles as histone demethylase inhibitors” (Istituto Europeo di Oncologia S.r.l., priority 2016, dated 2020)
# Where a name gives a salt, the structure may show the parent alone.
# What was measured:
# [1] = target: T1, human recombinant KDM1A/CoREST protein (Homo sapiens, UniProt O60341); test: Assay of enzyme inhibition of KDM1A (LSD1), TR-FRET; format: biochemical; conditions: 0.25 nM KDM1A/CoREST, 50 nM H3K4 monomethylated peptide, 20 min at RT
# T1 construct: made in house; host or cells: E. coli
# Method: 2.1 Assay of Enzyme Inhibition of KDM1A (LSD1)
# The intensity of the light emission is proportional to the level of biotinylated reaction product. The complex of human recombinant KDM1A/CoREST protein was produced in E. coli as separate proteins and co-purified as previously described.
# Demethylase reaction was started by the addition of 50 nM histone H3K4 monomethylated.
# The resulting mixture was incubated in the dark for 1 h at RT. Then, TR-FRET signal was read by a fluorimeter (Infinite® F200, Tecan, Männedorf, Swirzerland) (Excitation 320 nm, Emission 665 nm and 620 nm, delay time 50 μs, window time 100 μs).
# The inhibitor concentrations ranged from 0.025 to 500 μM (serial 1:3 dilutions). The IC50 was calculated using GraphPad Software.
# [2] = test system: human leukemia NB4 cells; test: Cell growth, CellTiter-Fluor viability assay, NB4; format: cell-based; conditions: NB-4, 48 h incubation, read-out: IC50 against human leukemia NB4 cells
# Description: (§1) CellTiter-Flor® (Promega) is as a nonlytic, single-reagent-addition fluorescence assay that measures the relative number of living cells in a culture population after experimental manipulation. The CellTiter-Fluor™ Cell Viability Assay measures the conserved and constitutive protease activity within live cells and therefore acts as a marker for cell viability.
# (§2) Human leukemia MV4-11 cells, (obtained from the Deutsche Sammlung von Mikroorganismen und Zellkulturen, ACC 102) or NB4 cells, (obtained from the Deutsche Sammlung von Mikroorganismen und Zellkulturen) in exponential growth, were incubated for 48 h with different concentrations of the inhibitors. After 48 h a volume of CellTiter-Fluor® Reagent equal to one fifth of volume of cell culture medium was added. The content was mixed and incubates for at least 90 min at 37° C. degree to obtain a stable signal. The fluorescence was recorded using an excitation wavelength of 360 nm and an emission at 535 nm. The IC50 was calculated using GraphPad Software.
# [3] = test system: Human leukemia MV4-11 cells; test: Cell growth, CellTiter-Fluor viability assay, MV4-11; format: cell-based; conditions: 48 h incubation, read-out: IC50 against human leukemia MV4-11 cells
# Description: as §1, §2
Structure (SMILES),IC50 [1],IC50 [2],IC50 [3]
"Cn1c(-c2ncc(C3CCC3)n2CCOc2ccc(OC3CCNCC3)cc2)cc2sccc21 [Example 30, 5-[5-cyclobutyl-1-[2-[4-(4-piperidyloxy)phenoxy]ethyl]imidazol-2-yl]-4-methyl-thieno[3,2-b]pyrrole hydrochloride]",< 100 nM,< 20 µM,< 10 µM
"CCc1cn(CCOc2ccc(OC3CCCNCC3)cc2)c(-c2cc3sccc3n2C)n1 (stereo not shown) [Example 25, 5-[1-[2-[4-(azepan-4-yloxy)phenoxy]ethyl]-4-ethyl-imidazol-2-yl]-4-methyl-thieno[3,2-b]pyrrole hydrochloride]",–,< 20 µM,< 10 µM
"CCc1cnc(-c2cc3sccc3n2C)n1CCCc1ccc(OCC2CCNCC2)cc1 [Example 43, 5-[5-ethyl-1-[3-[4-(4-piperidylmethoxy)phenyl]propyl]imidazol-2-yl]-4-methyl-thieno[3,2-b]pyrrole]",< 100 nM,< 10 µM,–
"CCc1cn(CCCc2ccc(OC3CCNCC3)cc2)c(-c2cc3sccc3n2C)n1 [Example 27, 5-[4-ethyl-1-[3-[4-(4-piperidyloxy)phenyl]propyl]imidazol-2-yl]-4-methyl-thieno[3,2-b]pyrrole hydrochloride]",–,< 20 µM,< 10 µM
"CCc1[nH]c(-c2cc3sccc3n2C)nc1-c1ccccc1 [Example 9, 5-(5-ethyl-4-phenyl-1H-imidazol-2-yl)-4-methyl-thieno[3,2-b]pyrrole]",< 1000 nM,–,–
"CCc1cnc(-c2cc3sccc3n2C)n1CCCc1ccc(OCC2CCNCC2)c(OCC2CCNCC2)c1 [Example 57, 5-[1-[3-[3,4-bis(4-piperidylmethoxy)phenyl]propyl]-5-ethyl-imidazol-2-yl]-4-methyl-thieno[3,2-b]pyrrole dihydrochloride]",< 100 nM,< 10 µM,–
"CCc1cn(CCOc2cccc(OC3CCCNCC3)c2)c(-c2cc3sccc3n2C)n1 (stereo not shown) [Example 34, 5-[1-[2-[3-(azepan-4-yloxy)phenoxy]ethyl]-4-ethyl-imidazol-2-yl]-4-methyl-thieno[3,2-b]pyrrole hydrochloride]",< 100 nM,–,–
"Cn1c(-c2ncc(C3CCC3)n2CCOc2ccc(OC3CCCNCC3)cc2)cc2sccc21 (stereo not shown) [Example 37, 5-[1-[2-[4-(azepan-4-yloxy)phenoxy]ethyl]-5-cyclobutyl-imidazol-2-yl]-4-methyl-thieno[3,2-b]pyrrole]",< 100 nM,–,–
"Cn1c(-c2nc(C3CCC3)cn2CCOc2ccc(OC3CCNCC3)cc2)cc2sccc21 [Example 29, 5-[4-cyclobutyl-1-[2-[4-(4-piperidyloxy)phenoxy]ethyl]imidazol-2-yl]-4-methyl-thieno[3,2-b]pyrrole hydrochloride]",–,< 20 µM,< 10 µM
"CCCc1cnc(-c2cc3sccc3n2C)n1CCOc1ccc(OC2CCNCC2)cc1 [Example 54, 4-methyl-5-[1-[2-[4-(4-piperidyloxy)phenoxy]ethyl]-5-propyl-imidazol-2-yl]thieno[3,2-b]pyrrole]",< 100 nM,–,–
"CCc1cn(CCCc2ccc(OC3CCCNCC3)cc2)c(-c2cc3sccc3n2C)n1 (stereo not shown) [Example 44, 5-[1-[3-[4-(azepan-4-yloxy)phenyl]propyl]-4-ethyl-imidazol-2-yl]-4-methyl-thieno[3,2-b]pyrrole hydrochloride]",–,< 10 µM,–
"Cn1c(-c2ncc(C3CCC3)n2CCCc2ccc(OC3CCCNCC3)cc2)cc2sccc21 (stereo not shown) [Example 62, 5-[1-[3-[4-(azepan-4-yloxy)phenyl]propyl]-5-cyclobutyl-imidazol-2-yl]-4-methyl-thieno[3,2-b]pyrrole hydrochloride]",< 100 nM,–,–
"CCCc1c(-c2ccccc2)nc(-c2cc3sccc3n2C)n1CCOc1ccc(OC2CCNCC2)cc1 [Example 41, 4-methyl-5-[4-phenyl-1-[2-[4-(4-piperidyloxy)phenoxy]ethyl]-5-propyl-imidazol-2-yl]thieno[3,2-b]pyrrole]",< 100 nM,< 10 µM,–
"CCc1nc(-c2cc3sccc3n2C)n(CCCc2ccc(OC3CCNCC3)cc2)c1-c1ccccc1 [Example 47, 5-[4-ethyl-5-phenyl-1-[3-[4-(4-piperidyloxy)phenyl]propyl]imidazol-2-yl]-4-methyl-thieno[3,2-b]pyrrole hydrochloride]",< 100 nM,< 10 µM,–
"CCc1cn(CCCc2ccc(OCC3CCNCC3)c(OCC3CCNCC3)c2)c(-c2cc3sccc3n2C)n1 [Example 52, 5-[1-[3-[3,4-bis(4-piperidylmethoxy)phenyl]propyl]-4-ethyl-imidazol-2-yl]-4-methyl-thieno[3,2-b]pyrrole dihydrochloride]",< 100 nM,–,–
"Cn1c(-c2ncc(C3CCC3)n2CCCc2ccc(OCC3CCNC3)cc2)cc2sccc21 (stereo not shown) [Example 60, 5-[5-cyclobutyl-1-[3-[4-(pyrrolidin-3-ylmethoxy)phenyl]propyl]imidazol-2-yl]-4-methyl-thieno[3,2-b]pyrrole]",< 100 nM,–,–
"CC(C)c1[nH]c(-c2cc3sccc3n2C)nc1-c1ccccc1 [Example 10, 5-(5-isopropyl-4-phenyl-1H-imidazol-2-yl)-4-methyl-thieno[3,2-b]pyrrole]",< 1000 nM,–,–
"CCc1cn(CCCc2ccc(OCC3CCNCC3)cc2)c(-c2cc3sccc3n2C)n1 [Example 42, 5-[4-ethyl-1-[3-[4-(4-piperidylmethoxy)phenyl]propyl]imidazol-2-yl]-4-methyl-thieno[3,2-b]pyrrole hydrochloride]",–,< 10 µM,–
"CCn1c(-c2nc(C3CCC3)c[nH]2)cc2sccc21 [Example 12, 5-(4-cyclobutyl-1H-imidazol-2-yl)-4-ethyl-thieno[3,2-b]pyrrole]",< 1000 nM,–,–
"CCc1cnc(-c2cc3sccc3n2C)n1CCCc1ccc(OC2CCCNCC2)cc1 (stereo not shown) [Example 45, 5-[1-[3-[4-(azepan-4-yloxy)phenyl]propyl]-5-ethyl-imidazol-2-yl]-4-methyl-thieno[3,2-b]pyrrole hydrochloride]",< 100 nM,< 10 µM,–
"CCc1cn(CCOc2ccc(OC3CCNCC3)cc2)c(-c2cc3ccsc3n2C)n1 [Example 39, 5-[4-ethyl-1-[2-[4-(4-piperidyloxy)phenoxy]ethyl]imidazol-2-yl]-6-methyl-thieno[2,3-b]pyrrole]",< 100 nM,< 10 µM,–
"CCCc1nc(-c2cc3sccc3n2C)n(CCOc2ccc(OC3CCNCC3)cc2)c1-c1ccccc1 [Example 40, 4-methyl-5-[5-phenyl-1-[2-[4-(4-piperidyloxy)phenoxy]ethyl]-4-propyl-imidazol-2-yl]thieno[3,2-b]pyrrole hydrochloride]",< 100 nM,< 10 µM,–
"CCc1c(-c2ccccc2)nc(-c2cc3sccc3n2C)n1CCCc1ccc(OC2CCNCC2)cc1 [Example 46, 5-[5-ethyl-4-phenyl-1-[3-[4-(4-piperidyloxy)phenyl]propyl]imidazol-2-yl]-4-methyl-thieno[3,2-b]pyrrole hydrochloride]",< 100 nM,< 10 µM,–
"Cn1c(-c2nc(C3CCC3)cn2CCCc2ccc(OC3CCNCC3)cc2)cc2sccc21 [Example 49, 5-[4-cyclobutyl-1-[3-[4-(4-piperidyloxy)phenyl]propyl]imidazol-2-yl]-4-methyl-thieno[3,2-b]pyrrole hydrochloride]",–,< 10 µM,–
"CCc1cn(CCc2ccc(OC3CCNCC3)cc2)c(-c2cc3sccc3n2C)n1 [Example 58, 5-[4-ethyl-1-[2-[4-(4-piperidyloxy)phenyl]ethyl]imidazol-2-yl]-4-methyl-thieno[3,2-b]pyrrole]",< 100 nM,–,–
"CCc1cnc(-c2cc3sccc3n2C)n1CCOc1cccc(OC2CCCNCC2)c1 (stereo not shown) [Example 35, 5-[1-[2-[3-(azepan-4-yloxy)phenoxy]ethyl]-5-ethyl-imidazol-2-yl]-4-methyl-thieno[3,2-b]pyrrole hydrochloride]",< 100 nM,–,–
"Cn1c(-c2ncc(C3CCC3)n2CCCc2ccc(OC3CCNCC3)cc2)cc2sccc21 [Example 50, 5-[5-cyclobutyl-1-[3-[4-(4-piperidyloxy)phenyl]propyl]imidazol-2-yl]-4-methyl-thieno[3,2-b]pyrrole]",< 100 nM,< 10 µM,–
"CCc1cn(CCOc2ccc(OC3CCNCC3)cc2)c(-c2cc3sccc3n2C)n1 [Example 20, 5-[4-ethyl-1-[2-[4-(4-piperidyloxy)phenoxy]ethyl]imidazol-2-yl]-4-methyl-thieno[3,2-b]pyrrole hydrochloride]",–,< 20 µM,< 10 µM
"Cn1c(-c2nc(-c3ccccc3)cn2CCCc2ccc(OC3CCNCC3)cc2)cc2sccc21 [Example 51, 4-methyl-5-[4-phenyl-1-[3-[4-(4-piperidyloxy)phenyl]propyl]imidazol-2-yl]thieno[3,2-b]pyrrole hydrochloride]",< 100 nM,–,–
"CC(C)c1nc(-c2cc3sccc3n2C)n(CCOc2ccc(OC3CCNCC3)cc2)c1-c1ccccc1 [Example 48, 5-[4-isopropyl-5-phenyl-1-[2-[4-(4-piperidyloxy)phenoxy]ethyl]imidazol-2-yl]-4-methyl-thieno[3,2-b]pyrrole]",< 100 nM,< 10 µM,–
